Source: ChEMBL document CHEMBL1201862, “PubChem BioAssay data set” (2004)

Experiment: Luminescence Cell-Based Dose Response HTS to Identify Inhibitors of 5'UTR Stem-Loop Driven Prion Protein mRNA Translation in H4 Neuroglioblastoma Cells. [Related pubchem assays: 1827 (Project Summary), 1813 (Primary HTS)]; in the data actives have a measured EC50 and inactives only a lower limit
Type: functional

Cn1nc(-c2ccc(Cl)cc2)nc2c(=O)n(C)c(=O)nc1-2
EC50: > 120 µM (not active)
